Patent publication US9981959B2, “Thiazolyl and oxazolyl urea, thiourea, guanidine and cyanoguanidine compounds as TrkA kinase inhibitors” (Array BioPharma Inc., priority 2012, dated 2018)

Assays:
Test in all cases: KinaseProfiler off-target kinase profiling
Format in all cases: biochemical
Settings in all cases: 10 μM, ATP near Km
RIPK2 = target: T1, RIPK2 (Homo sapiens, UniProt O43353)
T1 construct: purchased Millipore, Inc. (KinaseProfiler service)
Procedure: (§1) A representative compound of the invention (Example 2) was tested for off-target kinase activity at a concentration of 10 μM by Millipore, Inc. in their KinaseProfiler™ service against all the kinases available in their full kinase panel. The compound was run in duplicate at a concentration of ATP near the Km for each individual kinase according to Millipore's specifications. The results are shown in Table B. Data are reported as percent of control (POC) and are the average of the two replicates.

PRKG1beta = target: T2, PRKG1beta (Homo sapiens, UniProt Q13976)
T2 construct: purchased Millipore, Inc. (KinaseProfiler service)
Procedure: as §1

TrkB = target: T3, TrkB (Homo sapiens, UniProt Q16620)
T3 construct: purchased Millipore, Inc. (KinaseProfiler service)
Procedure: as §1

TLK2 = target: T4, TLK2 (Homo sapiens, UniProt Q86UE8)
T4 construct: purchased Millipore, Inc. (KinaseProfiler service)
Procedure: as §1

LKB1 = target: T5, LKB1 (Homo sapiens, UniProt Q15831)
T5 construct: purchased Millipore, Inc. (KinaseProfiler service)
Procedure: as §1

BTK = target: T6, BTK (Homo sapiens, UniProt Q06187)
T6 construct: purchased Millipore (KinaseProfiler service)
Procedure: as §1

PTK6 = target: T7, PTK6 (Homo sapiens, UniProt Q13882)
T7 construct: purchased Millipore, Inc. (KinaseProfiler service)
Procedure: as §1

Rsk2 = target: T8, Rsk2 (Homo sapiens, UniProt P51812)
T8 construct: purchased Millipore, Inc. (KinaseProfiler service)
Procedure: as §1

IKKbeta = target: T9, IKKbeta (Homo sapiens, UniProt O14920)
T9 construct: purchased Millipore, Inc. (KinaseProfiler service)
Procedure: as §1

FAK2 = target: T10, FAK2 (Homo sapiens, UniProt Q14289)
T10 construct: purchased Millipore, Inc. (KinaseProfiler service)
Procedure: as §1

MKK4_m = target: T11, MKK4_m (Mus musculus, UniProt P47809)
T11 construct: purchased Millipore, Inc. (KinaseProfiler service)
Procedure: as §1

Met = target: T12, Met (Homo sapiens, UniProt P08581)
T12 construct: purchased Millipore, Inc. (KinaseProfiler service)
Procedure: as §1

Abl2 = target: T13, Abl2 (Homo sapiens, UniProt P42684)
T13 construct: purchased Millipore (KinaseProfiler service)
Procedure: as §1

PAK2 = target: T14, PAK2 (Homo sapiens, UniProt Q13177)
T14 construct: purchased Millipore, Inc. (KinaseProfiler service)
Procedure: as §1

DRAK1 = target: T15, DRAK1 (Homo sapiens, UniProt Q9UEE5)
T15 construct: purchased Millipore, Inc. (KinaseProfiler service)
Procedure: as §1

LOK = target: T16, LOK (Homo sapiens, UniProt O94804)
T16 construct: purchased Millipore, Inc. (KinaseProfiler service)
Procedure: as §1

JAK2 = target: T17, JAK2 (Homo sapiens, UniProt O60674)
T17 construct: purchased Millipore, Inc. (KinaseProfiler service)
Procedure: as §1

PDGFRalpha = target: T18, PDGFRalpha (Homo sapiens, UniProt P16234)
T18 construct: purchased Millipore, Inc. (KinaseProfiler service)
Procedure: as §1

ErbB4 = target: T19, ErbB4 (Homo sapiens, UniProt Q15303)
T19 construct: purchased Millipore, Inc. (KinaseProfiler service)
Procedure: as §1

ERK2 = target: T20, ERK2 (Homo sapiens, UniProt P28482)
T20 construct: purchased Millipore, Inc. (KinaseProfiler service)
Procedure: as §1

PKD2 = target: T21, PKD2 (Homo sapiens, UniProt Q9BZL6)
T21 construct: purchased Millipore, Inc. (KinaseProfiler service)
Procedure: as §1

FAK = target: T22, FAK (Homo sapiens, UniProt Q05397)
T22 construct: purchased Millipore, Inc. (KinaseProfiler service)
Procedure: as §1

MST2 = target: T23, MST2 (Homo sapiens, UniProt Q13188)
T23 construct: purchased Millipore, Inc. (KinaseProfiler service)
Procedure: as §1

PAK5 = target: T24, PAK5 (Homo sapiens, UniProt Q9P286)
T24 construct: purchased Millipore, Inc. (KinaseProfiler service)
Procedure: as §1

Yes = target: T25, Yes (Homo sapiens, UniProt P07947)
T25 construct: purchased Millipore, Inc. (KinaseProfiler service)
Procedure: as §1

ERK1 = target: T26, ERK1 (Homo sapiens, UniProt P27361)
T26 construct: purchased Millipore, Inc. (KinaseProfiler service)
Procedure: as §1

PKD1 = target: T27, PKD1 (Homo sapiens, UniProt Q15139)
T27 construct: purchased Millipore, Inc. (KinaseProfiler service)
Procedure: as §1

PKCeta = target: T28, PKCeta (Homo sapiens, UniProt P24723)
T28 construct: purchased Millipore, Inc. (KinaseProfiler service)
Procedure: as §1

Flt4 = target: T29, Flt4 (Homo sapiens, UniProt P35916)
T29 construct: purchased Millipore, Inc. (KinaseProfiler service)
Procedure: as §1

p38beta = target: T30, p38beta (Homo sapiens, UniProt Q15759)
T30 construct: purchased Millipore, Inc. (KinaseProfiler service)
Procedure: as §1

Txk = target: T31, Txk (Homo sapiens, UniProt P42681)
T31 construct: purchased Millipore, Inc. (KinaseProfiler service)
Procedure: as §1

IGF-1R = target: T32, IGF-1R (Homo sapiens, UniProt P08069)
T32 construct: purchased Millipore, Inc. (KinaseProfiler service)
Procedure: as §1

Ron = target: T33, Ron (Homo sapiens, UniProt Q04912)
T33 construct: purchased Millipore, Inc. (KinaseProfiler service)
Procedure: as §1

Hck = target: T34, Hck (Homo sapiens, UniProt P08631)
T34 construct: purchased Millipore, Inc. (KinaseProfiler service)
Procedure: as §1

MYLK = target: T35, MYLK (Homo sapiens, UniProt Q15746)
T35 construct: purchased Millipore, Inc. (KinaseProfiler service)
Procedure: as §1

TSSK2 = target: T36, TSSK2 (Homo sapiens, UniProt Q96PF2)
T36 construct: purchased Millipore, Inc. (KinaseProfiler service)
Procedure: as §1

JNK3 = target: T37, JNK3 (Homo sapiens, UniProt P53779)
T37 construct: purchased Millipore, Inc. (KinaseProfiler service)
Procedure: as §1

TAO2 = target: T38, TAO2 (Homo sapiens, UniProt Q9UL54)
T38 construct: purchased Millipore, Inc. (KinaseProfiler service)
Procedure: as §1

AKT2 = target: T39, AKT2 (Homo sapiens, UniProt P31751)
T39 construct: purchased Millipore (KinaseProfiler service)
Procedure: as §1

Ros = target: T40, Ros (Homo sapiens, UniProt P08922)
T40 construct: purchased Millipore, Inc. (KinaseProfiler service)
Procedure: as §1

MEK1 = target: T41, MEK1 (Homo sapiens, UniProt Q02750)
T41 construct: purchased Millipore, Inc. (KinaseProfiler service)
Procedure: as §1

Axl = target: T42, Axl (Homo sapiens, UniProt P30530)
T42 construct: purchased Millipore (KinaseProfiler service)
Procedure: as §1

T42 sequence (P30530 26-894): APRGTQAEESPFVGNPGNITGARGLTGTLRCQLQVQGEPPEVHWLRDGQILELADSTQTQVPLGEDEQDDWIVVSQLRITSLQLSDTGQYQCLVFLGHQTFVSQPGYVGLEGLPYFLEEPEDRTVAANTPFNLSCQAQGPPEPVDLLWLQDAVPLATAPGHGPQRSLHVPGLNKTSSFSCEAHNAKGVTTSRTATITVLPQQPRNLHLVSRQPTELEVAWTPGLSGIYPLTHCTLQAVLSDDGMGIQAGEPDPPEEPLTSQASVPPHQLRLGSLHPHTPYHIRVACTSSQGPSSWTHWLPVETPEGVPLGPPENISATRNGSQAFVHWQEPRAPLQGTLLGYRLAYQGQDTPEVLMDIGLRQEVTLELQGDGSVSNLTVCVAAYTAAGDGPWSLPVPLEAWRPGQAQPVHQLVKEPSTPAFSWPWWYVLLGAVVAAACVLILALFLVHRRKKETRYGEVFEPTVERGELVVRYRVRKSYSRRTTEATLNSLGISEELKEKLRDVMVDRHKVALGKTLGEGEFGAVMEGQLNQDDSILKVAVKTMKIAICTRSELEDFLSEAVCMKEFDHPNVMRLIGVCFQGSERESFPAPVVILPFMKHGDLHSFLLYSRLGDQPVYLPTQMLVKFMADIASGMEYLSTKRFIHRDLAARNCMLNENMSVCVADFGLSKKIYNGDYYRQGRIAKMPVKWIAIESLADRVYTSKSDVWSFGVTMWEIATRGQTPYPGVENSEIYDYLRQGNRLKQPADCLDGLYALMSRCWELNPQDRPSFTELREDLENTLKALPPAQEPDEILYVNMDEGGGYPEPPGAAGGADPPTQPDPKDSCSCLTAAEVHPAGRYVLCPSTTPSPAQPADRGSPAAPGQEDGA
T9 sequence (O14920 whole entry): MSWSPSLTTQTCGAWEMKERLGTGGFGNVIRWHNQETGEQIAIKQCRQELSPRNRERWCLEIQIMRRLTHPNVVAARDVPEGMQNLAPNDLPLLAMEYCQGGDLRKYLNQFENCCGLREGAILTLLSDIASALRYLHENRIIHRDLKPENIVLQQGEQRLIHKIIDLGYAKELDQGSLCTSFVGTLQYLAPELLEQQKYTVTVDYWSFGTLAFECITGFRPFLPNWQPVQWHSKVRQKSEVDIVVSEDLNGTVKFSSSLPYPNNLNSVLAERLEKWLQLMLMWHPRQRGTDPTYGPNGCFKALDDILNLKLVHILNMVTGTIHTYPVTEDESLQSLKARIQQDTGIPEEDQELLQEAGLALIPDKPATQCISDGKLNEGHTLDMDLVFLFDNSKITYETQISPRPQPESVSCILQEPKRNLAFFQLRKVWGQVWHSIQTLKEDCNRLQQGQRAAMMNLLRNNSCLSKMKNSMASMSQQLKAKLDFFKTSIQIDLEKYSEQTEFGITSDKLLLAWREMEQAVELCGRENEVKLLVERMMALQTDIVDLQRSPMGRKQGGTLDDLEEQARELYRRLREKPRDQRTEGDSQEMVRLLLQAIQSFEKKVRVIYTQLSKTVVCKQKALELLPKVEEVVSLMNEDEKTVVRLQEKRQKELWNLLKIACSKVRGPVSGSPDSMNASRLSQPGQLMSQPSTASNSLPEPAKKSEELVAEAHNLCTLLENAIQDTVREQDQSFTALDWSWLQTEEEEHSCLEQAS
T38 sequence (Q9UL54 whole entry): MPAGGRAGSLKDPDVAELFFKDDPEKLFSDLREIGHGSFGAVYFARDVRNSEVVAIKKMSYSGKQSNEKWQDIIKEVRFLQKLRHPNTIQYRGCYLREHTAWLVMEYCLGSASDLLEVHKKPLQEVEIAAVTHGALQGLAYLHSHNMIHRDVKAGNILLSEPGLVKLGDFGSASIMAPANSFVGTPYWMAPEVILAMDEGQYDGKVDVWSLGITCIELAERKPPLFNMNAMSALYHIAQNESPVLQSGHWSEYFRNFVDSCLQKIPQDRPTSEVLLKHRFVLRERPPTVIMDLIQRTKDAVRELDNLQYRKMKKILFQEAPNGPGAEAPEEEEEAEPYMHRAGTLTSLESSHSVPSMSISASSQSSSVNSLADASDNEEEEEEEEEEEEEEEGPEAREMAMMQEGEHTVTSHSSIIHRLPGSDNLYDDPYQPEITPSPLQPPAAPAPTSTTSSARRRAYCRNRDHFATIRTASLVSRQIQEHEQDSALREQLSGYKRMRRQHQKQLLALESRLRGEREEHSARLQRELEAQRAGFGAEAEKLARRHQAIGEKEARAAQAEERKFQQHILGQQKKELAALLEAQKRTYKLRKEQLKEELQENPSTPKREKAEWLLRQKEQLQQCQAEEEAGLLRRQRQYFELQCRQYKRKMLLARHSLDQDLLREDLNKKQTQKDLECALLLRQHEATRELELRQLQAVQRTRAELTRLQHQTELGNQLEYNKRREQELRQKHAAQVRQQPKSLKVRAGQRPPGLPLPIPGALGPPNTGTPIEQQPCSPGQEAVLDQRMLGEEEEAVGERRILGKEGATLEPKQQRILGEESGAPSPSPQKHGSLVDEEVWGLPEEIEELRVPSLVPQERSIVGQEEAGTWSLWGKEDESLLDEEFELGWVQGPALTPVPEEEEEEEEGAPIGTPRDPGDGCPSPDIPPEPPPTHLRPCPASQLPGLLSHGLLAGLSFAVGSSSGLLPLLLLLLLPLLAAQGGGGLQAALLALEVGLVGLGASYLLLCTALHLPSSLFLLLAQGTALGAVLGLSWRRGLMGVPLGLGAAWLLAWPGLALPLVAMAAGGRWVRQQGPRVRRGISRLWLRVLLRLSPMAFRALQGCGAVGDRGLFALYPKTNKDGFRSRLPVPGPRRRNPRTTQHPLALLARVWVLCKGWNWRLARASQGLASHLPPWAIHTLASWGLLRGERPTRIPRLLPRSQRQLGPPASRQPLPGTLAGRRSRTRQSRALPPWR
T7 sequence (Q13882 whole entry): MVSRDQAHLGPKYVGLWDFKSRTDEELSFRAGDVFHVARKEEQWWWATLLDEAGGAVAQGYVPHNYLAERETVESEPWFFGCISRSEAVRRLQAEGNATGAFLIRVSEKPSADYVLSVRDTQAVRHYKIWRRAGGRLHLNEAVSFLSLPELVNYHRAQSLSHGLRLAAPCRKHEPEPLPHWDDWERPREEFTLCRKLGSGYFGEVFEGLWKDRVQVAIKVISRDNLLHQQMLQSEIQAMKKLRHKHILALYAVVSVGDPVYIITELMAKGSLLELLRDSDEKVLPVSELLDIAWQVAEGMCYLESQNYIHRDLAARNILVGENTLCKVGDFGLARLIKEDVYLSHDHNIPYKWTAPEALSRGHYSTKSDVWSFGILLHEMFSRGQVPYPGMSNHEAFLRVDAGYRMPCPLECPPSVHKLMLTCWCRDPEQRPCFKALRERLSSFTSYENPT
T26 sequence (P27361 whole entry): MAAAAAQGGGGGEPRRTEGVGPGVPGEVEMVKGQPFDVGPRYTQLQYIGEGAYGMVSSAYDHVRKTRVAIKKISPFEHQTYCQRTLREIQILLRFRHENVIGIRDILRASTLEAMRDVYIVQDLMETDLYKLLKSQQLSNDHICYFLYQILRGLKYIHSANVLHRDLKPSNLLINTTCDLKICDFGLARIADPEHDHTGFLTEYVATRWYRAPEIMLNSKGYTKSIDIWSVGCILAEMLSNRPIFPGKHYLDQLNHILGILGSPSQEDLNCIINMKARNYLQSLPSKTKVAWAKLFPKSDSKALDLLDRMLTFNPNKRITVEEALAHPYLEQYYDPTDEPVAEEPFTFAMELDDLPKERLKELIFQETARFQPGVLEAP
T15 sequence (Q9UEE5 whole entry): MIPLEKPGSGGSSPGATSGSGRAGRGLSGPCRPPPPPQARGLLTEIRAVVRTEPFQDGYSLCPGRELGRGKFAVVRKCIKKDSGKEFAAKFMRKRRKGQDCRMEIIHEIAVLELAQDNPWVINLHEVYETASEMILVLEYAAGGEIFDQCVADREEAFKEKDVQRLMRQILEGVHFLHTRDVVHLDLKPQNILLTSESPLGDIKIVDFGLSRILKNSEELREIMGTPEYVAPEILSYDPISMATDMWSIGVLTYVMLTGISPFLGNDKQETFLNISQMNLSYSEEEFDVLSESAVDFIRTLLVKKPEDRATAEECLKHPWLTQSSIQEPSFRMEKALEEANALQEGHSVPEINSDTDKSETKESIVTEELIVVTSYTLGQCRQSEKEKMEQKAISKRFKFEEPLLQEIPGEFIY
T6 sequence (Q06187 whole entry): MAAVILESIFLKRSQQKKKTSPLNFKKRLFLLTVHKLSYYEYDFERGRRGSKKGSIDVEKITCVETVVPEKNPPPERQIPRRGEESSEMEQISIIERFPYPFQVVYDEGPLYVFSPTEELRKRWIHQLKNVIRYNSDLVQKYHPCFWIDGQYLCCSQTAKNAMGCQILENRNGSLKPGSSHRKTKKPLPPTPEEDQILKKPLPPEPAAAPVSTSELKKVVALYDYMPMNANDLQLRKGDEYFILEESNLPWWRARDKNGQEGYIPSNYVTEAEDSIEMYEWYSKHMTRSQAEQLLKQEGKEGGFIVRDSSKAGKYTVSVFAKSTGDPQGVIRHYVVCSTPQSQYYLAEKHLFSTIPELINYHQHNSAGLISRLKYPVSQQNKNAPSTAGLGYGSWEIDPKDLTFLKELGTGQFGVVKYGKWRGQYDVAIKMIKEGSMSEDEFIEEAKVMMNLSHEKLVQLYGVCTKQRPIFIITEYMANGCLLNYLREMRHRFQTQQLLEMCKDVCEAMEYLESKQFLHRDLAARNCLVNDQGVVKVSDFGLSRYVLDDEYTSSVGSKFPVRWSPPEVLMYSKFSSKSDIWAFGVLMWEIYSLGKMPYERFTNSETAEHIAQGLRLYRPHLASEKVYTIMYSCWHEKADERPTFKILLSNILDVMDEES

- Avg POC (RIPK2): 98 POC
- Avg POC (PRKG1beta): 119 POC
- Avg POC (TrkB): 3 POC
- Avg POC (TLK2): 98 POC
- Avg POC (LKB1): 96.5 POC
- Avg POC (BTK): 123 POC
- Avg POC (PTK6): 113.5 POC
- Avg POC (Rsk2): 131 POC
- Avg POC (IKKbeta): 112 POC
- Avg POC (FAK2): 107 POC
- Avg POC (MKK4_m): 73.5 POC
- Avg POC (Met): 120 POC
- Avg POC (Abl2): 136 POC
- Avg POC (PAK2): 98.5 POC
- Avg POC (DRAK1): 119 POC
- Avg POC (LOK): 110.5 POC
- Avg POC (JAK2): 147.5 POC
- Avg POC (PDGFRalpha): 102.5 POC
- Avg POC (ErbB4): 125 POC
- Avg POC (ERK2): 135 POC
- Avg POC (PKD2): 110.5 POC
- Avg POC (FAK): 106 POC
- Avg POC (MST2): 109 POC
- Avg POC (PAK5): 131.5 POC
- Avg POC (Yes): 128.5 POC
- Avg POC (ERK1): 96.5 POC
- Avg POC (PKD1): 97.5 POC
- Avg POC (PKCeta): 103.5 POC
- Avg POC (Flt4): 107 POC
- Avg POC (p38beta): 106.5 POC
- Avg POC (Txk): 163 POC
- Avg POC (IGF-1R): 82.5 POC
- Avg POC (Ron): 110.5 POC
- Avg POC (Hck): 134.5 POC
- Avg POC (MYLK): 99 POC
- Avg POC (TSSK2): 142.5 POC
- Avg POC (JNK3): 120 POC
- Avg POC (TAO2): 123.5 POC
- Avg POC (AKT2): 171.5 POC
- Avg POC (Ros): 96.5 POC
- Avg POC (MEK1): 103.5 POC
- Avg POC (Axl): 122.5 POC
Compound: Cc1c(-c2cnn(C)c2)nn(-c2ccccc2)c1NC(=O)Nc1sc(C(F)(F)F)nc1-c1ccccc1 [Example 2, 1-(1′,4-dimethyl-1-phenyl-1H,1′H-[3,4′-bipyrazol]-5-yl)-3-(4-phenyl-2-(trifluoromethyl)thiazol-5-yl)urea]
